This experiment in a line: Inhibition of Influenza B virus neuraminidase R152K mutant.

From ChEMBL document CHEMBL3739372 (Bioorg Med Chem, 2015) come the findings set out here.

A word on the IC50: it is the point on the concentration scale where inhibition reaches its midpoint. In turn, `CCOC(=O)C1=C[C@@H](OC(CC)CC)[C@H](NC(C)=O)[C@@H](N)C1` [OSELTAMIVIR] yielded an IC50 of 85 µM. This counts as double-digit micromolar. For `CCOC(=O)c1cn(CC)c2ccc(-n3cc(C4=CCCCC4)nn3)cc2c1=O`, the IC50 was determined as 30 µM.
